Among the data in patent US20240246977A1, “DEGRADATION OF BRUTON'S TYROSINE KINASE (BTK) BY CONJUGATION OF BTK INHIBITORS WITH E3 LIGASE LIGAND AND METHOD OF USE” (BeiGene Switzerland GmbH, priority 2021, published 2024) are DC50 and IC50 values, retold here.

One experiment addresses BTK (Homo sapiens, UniProt Q06187). The experiment can be described thus: BTK cell degradation in TMD-8 cells, HTRF assay. It is filed as cell-based. Also on record: endogenous in cells; host or cells: TMD-8 cells. The note with it: 6 h treatment, IC50 (DC50) of BTK degradation. In outline: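 TMD-8 cells treated 6 h with 8-dose series (6-fold dilutions, 0.2% DMSO final), then lysed and BTK quantified by HTRF (337/665/620 nm) after overnight antibody incubation at room temperature. Degradation normalized to DMSO high and low controls; DC50 and Dmax from four-parameter fit.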
(In TR-FRET formats the signal depends on donor and acceptor labels being close together.)

The test system of the next experiment is HEK-293 cells. The experiment can be described thus: HEK-293 cytotoxicity detection (CellTiter-Glo). The class given is cell-based. The following applies: 72 h incubation, CellTiter-Glo luminescence, read-out: HEK293. In outline: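 HEK-293 cells exposed 72 h to 8 compounds doses (4-fold dilutions, top stock 5 mM at 500×) in 0.2% DMSO. Viability by CellTiter-Glo luminescence; inhibition normalised to DMSO high control and low control, IC50 from four-parameter curve fit.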

Like-named read-outs stand apart in the source and are kept apart here.

Chain of BTK (Q06187 whole entry): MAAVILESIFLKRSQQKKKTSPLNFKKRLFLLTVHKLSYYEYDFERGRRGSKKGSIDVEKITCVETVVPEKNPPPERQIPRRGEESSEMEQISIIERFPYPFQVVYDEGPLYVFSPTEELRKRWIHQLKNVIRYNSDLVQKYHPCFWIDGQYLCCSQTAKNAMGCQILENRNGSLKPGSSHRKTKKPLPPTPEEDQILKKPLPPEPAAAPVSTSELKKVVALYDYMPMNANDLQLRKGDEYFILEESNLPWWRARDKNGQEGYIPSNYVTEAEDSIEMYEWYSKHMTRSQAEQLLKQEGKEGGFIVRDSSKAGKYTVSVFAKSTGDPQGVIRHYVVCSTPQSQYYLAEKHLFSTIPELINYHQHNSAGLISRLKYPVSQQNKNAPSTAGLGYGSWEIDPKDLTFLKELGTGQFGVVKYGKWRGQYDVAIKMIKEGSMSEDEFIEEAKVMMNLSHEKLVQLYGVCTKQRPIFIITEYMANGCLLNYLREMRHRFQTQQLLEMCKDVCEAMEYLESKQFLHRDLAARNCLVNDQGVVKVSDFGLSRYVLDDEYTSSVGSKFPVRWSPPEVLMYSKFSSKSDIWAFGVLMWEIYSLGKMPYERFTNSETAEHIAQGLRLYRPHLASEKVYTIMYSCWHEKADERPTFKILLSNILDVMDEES

For the molecule `NC(=O)c1c(-c2ccc(Oc3ccccc3)cc2)nn2c1Nc1ccc(C3CCN(CCC4CCN(c5ccc(N6CCC(=O)NC6=O)cc5)CC4)CC3)cc1CC2` [Example A28, 7-(1-(2-(1-(4-(2,4-dioxotetrahydropyrimidin-1(2H)-yl)phenyl)piperidin-4-yl)ethyl)piperidin-4-yl)-2-(4-phenoxyphenyl)-9,10-dihydro-4H-benzo[d]pyrazolo[1,5-a][1,3]diazepine-3-carboxamide], the DC50 (in general, the concentration at which degradation of the target reaches its halfway point) at BTK is 2.01 nM. Moreover, the IC50 in the experiment on HEK-293 cells (Homo sapiens, 72 h) amounted to 81.1 nM.
For the molecule `NC(=O)c1c(-c2ccc(Oc3ccccc3)cc2)nn2c1Nc1ccc(C3CCN(CC4CCN(c5ccc(N6CCC(=O)NC6=O)cc5)CC4)CC3)cc1CC2` [Example A30, 7-(1-((1-(4-(2,4-dioxotetrahydropyrimidin-1(2H)-yl)phenyl)piperidin-4-yl)methyl)piperidin-4-yl)-2-(4-phenoxyphenyl)-9,10-dihydro-4H-benzo[d]pyrazolo[1,5-a][1,3]diazepine-3-carboxamide], it took 1.58 nM to reach half-maximal degradation on BTK (DC50). For the same molecule, the IC50 in the experiment on HEK-293 cells (Homo sapiens, 72 h) stood at 28.7 nM.
On the same counts, the results for `CC(C)(C)c1ccc(Oc2ccc(-c3nn4c(c3C(N)=O)Nc3ccc(C5CCN(CC6CCN(c7ccc(N8CCC(=O)NC8=O)cc7)CC6)CC5)cc3CC4)cc2)cc1` [Example A31, 2-(4-(4-(tert-butyl)phenoxy)phenyl)-7-(1-((1-(4-(2,4-dioxotetrahydropyrimidin-1(2H)-yl)phenyl)piperidin-4-yl)methyl)piperidin-4-yl)-9,10-dihydro-4H-benzo[d]pyrazolo[1,5-a][1,3]diazepine-3-carboxamide] are 11.9 nM and 556 nM.
On the same counts, the results for `NC(=O)c1c(-c2ccc(Oc3ccccc3)cc2)nn2c1Nc1cc(C3CCN(CCCOc4ccc(NC5CCC(=O)NC5=O)cc4)CC3)ccc1CC2` (stereo not shown) [Example A32, 6-(1-(3-(4-((2,6-dioxopiperidin-3-yl)amino)phenoxy)propyl)piperidin-4-yl)-2-(4-phenoxyphenyl)-9,10-dihydro-4H-benzo[d]pyrazolo[1,5-a] [1,3]diazepine-3-carboxamide] are 6.03 nM and 417 nM.
On the same counts, the results for `NC(=O)c1c(-c2ccc(Oc3ccccc3)cc2)nn2c1Nc1cc(C3CCN(CCc4ccc(N5CCC(=O)NC5=O)cc4)CC3)ccc1CC2` [Example A33, 6-(1-(4-(2,4-dioxotetrahydropyrimidin-1(2H)-yl)phenethyl)piperidin-4-yl)-2-(4-phenoxyphenyl)-9,10-dihydro-4H-benzo[d]pyrazolo[1,5-a][1,3]diazepine-3-carboxamide] are > 2000 nM and 314 nM.
`NC(=O)c1c(-c2ccc(Oc3ccccc3)cc2)nn2c1Nc1cc(C3CCN(CCc4ccc(C5CCC(=O)NC5=O)cc4)CC3)ccc1CC2` (stereo not shown) [Example A34, 6-(1-(4-(2,6-dioxopiperidin-3-yl)phenethyl)piperidin-4-yl)-2-(4-phenoxyphenyl)-9,10-dihydro-4H-benzo[d]pyrazolo[1,5-a][1,3]diazepine-3-carboxamide] returned a 50% degradation concentration (DC50) at BTK of 11.9 nM. In addition, in the experiment with HEK-293 cells (Homo sapiens, 72 h), the IC50 stood at 337 nM.
The corresponding values for `NC(=O)c1c(-c2ccc(Oc3ccccc3)cc2)nn2c1Nc1cc(C3CCN(CC4CCN(c5ccc(NC6CCC(=O)NC6=O)cc5)CC4)CC3)ccc1CC2` (stereo not shown) [Example A35, 6-(1-((1-(4-((2,6-dioxopiperidin-3-yl)amino)phenyl)piperidin-4-yl)methyl)piperidin-4-yl)-2-(4-phenoxyphenyl)-9,10-dihydro-4H-benzo[d]pyrazolo[1,5-a][1,3]diazepine-3-carboxamide] are 69.1 nM and 241 nM.
The molecule `COc1cc(Oc2ccccc2)ccc1-c1nn2c(c1C(N)=O)Nc1ccc(N3CCN(CC4CCN(c5ccc(N6CCC(=O)NC6=O)cc5)CC4)CC3)cc1CC2` [Example A36, 7-(4-((1-(4-(2,4-dioxotetrahydropyrimidin-1(2H)-yl)phenyl)piperidin-4-yl)methyl)piperazin-1-yl)-2-(2-methoxy-4-phenoxyphenyl)-9,10-dihydro-4H-benzo[d]pyrazolo[1,5-a][1,3]diazepine-3-carboxamide] displayed a DC50 at BTK of 3.6 nM. In addition, in the experiment on HEK-293 cells (Homo sapiens, 72 h), the IC50 was found to be 148 nM.
On the same counts, the results for `NC(=O)c1c(-c2ccc(Oc3ccccc3)cc2F)nn2c1Nc1ccc(N3CCN(CC4CCN(c5ccc(N6CCC(=O)NC6=O)cc5)CC4)CC3)cc1CC2` [Example A37, 7-(4-((1-(4-(2,4-dioxotetrahydropyrimidin-1(2H)-yl)phenyl)piperidin-4-yl)methyl)piperazin-1-yl)-2-(2-fluoro-4-phenoxyphenyl)-9,10-dihydro-4H-benzo[d]pyrazolo[1,5-a][1,3]diazepine-3-carboxamide] are 4.71 nM and 70 nM.
`NC(=O)c1c(-c2ccc(OCc3ccccc3)cc2)nn2c1Nc1ccc(N3CCN(CC4CCN(c5ccc(N6CCC(=O)NC6=O)cc5)CC4)CC3)cc1CC2` [Example A38, 2-(4-(benzyloxy)phenyl)-7-(4-((1-(4-(2,4-dioxotetrahydropyrimidin-1(2H)-yl)phenyl)piperidin-4-yl)methyl)piperazin-1-yl)-9,10-dihydro-4H-benzo[d]pyrazolo[1,5-a][1,3]diazepine-3-carboxamide] registered a DC50 on BTK of 1.12 nM. Further, in the experiment with HEK-293 cells (Homo sapiens, 72 h), the IC50 worked out at 185 nM.
`NC(=O)c1c(-c2ccc(C(=O)Nc3cc(C(F)(F)F)ccn3)cc2)nn2c1Nc1ccc(N3CCN(CC4CCN(c5ccc(N6CCC(=O)NC6=O)cc5)CC4)CC3)cc1CC2` [Example B1, 7-(4-((1-(4-(2,4-dioxotetrahydropyrimidin-1(2H)-yl)phenyl)piperidin-4-yl)methyl)piperazin-1-yl)-2-(4-((4-(trifluoromethyl)pyridin-2-yl)carbamoyl)phenyl)-9,10-dihydro-4H-benzo[d]pyrazolo[1,5-a][1,3]diazepine-3-carboxamide] returned a half-maximal degradation concentration (DC50) on BTK of 0.561 nM. For the same molecule, the IC50 in the experiment with HEK-293 cells is > 10000 nM.
`NC(=O)c1c(-c2ccc(C(=O)Nc3cc(C(F)(F)F)ccn3)cc2F)nn2c1Nc1ccc(N3CCN(CC4CCN(c5ccc(N6CCC(=O)NC6=O)cc5)CC4)CC3)cc1CC2` [Example B2, 7-(4-((1-(4-(2,4-dioxotetrahydropyrimidin-1(2H)-yl)phenyl)piperidin-4-yl)methyl)piperazin-1-yl)-2-(2-fluoro-4-((4-(trifluoromethyl)pyridin-2-yl)carbamoyl)phenyl)-9,10-dihydro-4H-benzo[d]pyrazolo[1,5-a][1,3]diazepine-3-carboxamide] displayed a DC50 on BTK of 0.842 nM. Moreover, the IC50 in the experiment with HEK-293 cells (Homo sapiens, 72 h) is > 10000 nM.
With `Cc1cc(N2CCC(CN3CCN(c4ccc5c(c4)CCn4nc(-c6ccc(C(=O)Nc7cc(C(F)(F)F)ccn7)cc6)c(C(N)=O)c4N5)CC3)CC2)ccc1N1CCC(=O)NC1=O` [Example B3, 7-(4-((1-(4-(2,4-dioxotetrahydropyrimidin-1(2H)-yl)-3-methylphenyl)piperidin-4-yl)methyl)piperazin-1-yl)-2-(4-((4-(trifluoromethyl)pyridin-2-yl)carbamoyl)phenyl)-9,10-dihydro-4H-benzo[d]pyrazolo[1,5-a][1,3]diazepine-3-carboxamide], half-maximal degradation on BTK (DC50) was put at 0.534 nM. For the same molecule, in the experiment with HEK-293 cells (Homo sapiens, 72 h), the IC50 amounted to 88.8 nM.
At BTK, `NC(=O)c1c(-c2ccc(C(=O)Nc3ccccn3)cc2)nn2c1Nc1ccc(N3CCN(CC4CCN(c5ccc(N6CCC(=O)NC6=O)cc5)CC4)CC3)cc1CC2` [Example B4, 7-(4-((1-(4-(2,4-dioxotetrahydropyrimidin-1(2H)-yl)phenyl)piperidin-4-yl)methyl)piperazin-1-yl)-2-(4-(pyridin-2-ylcarbamoyl)phenyl)-9,10-dihydro-4H-benzo[d]pyrazolo[1,5-a][1,3]diazepine-3-carboxamide] showed a half-maximal degradation concentration (DC50) of 0.704 nM. Further, the IC50 in the experiment with HEK-293 cells (Homo sapiens, 72 h) is > 10000 nM.
Molecule `Cc1cc(-c2nn3c(c2C(N)=O)Nc2ccc(N4CCN(CC5CCN(c6ccc(N7CCC(=O)NC7=O)cc6)CC5)CC4)cc2CC3)ccc1C(=O)Nc1cc(C(F)(F)F)ccn1` [Example B5, 7-(4-((1-(4-(2,4-dioxotetrahydropyrimidin-1(2H)-yl)phenyl)piperidin-4-yl)methyl)piperazin-1-yl)-2-(3-methyl-4-((4-(trifluoromethyl)pyridin-2-yl)carbamoyl)phenyl)-9,10-dihydro-4H-benzo[d]pyrazolo[1,5-a][1,3]diazepine-3-carboxamide] gave a DC50 on BTK of 1.46 nM. The IC50 in the experiment on HEK-293 cells (Homo sapiens, 72 h) is > 10000 nM.
The corresponding values for `Cc1cc(C(=O)Nc2cc(C(F)(F)F)ccn2)ccc1-c1nn2c(c1C(N)=O)Nc1ccc(N3CCN(CC4CCN(c5ccc(N6CCC(=O)NC6=O)cc5)CC4)CC3)cc1CC2` [Example B6, 7-(4-((1-(4-(2,4-dioxotetrahydropyrimidin-1(2H)-yl)phenyl)piperidin-4-yl)methyl)piperazin-1-yl)-2-(2-methyl-4-((4-(trifluoromethyl)pyridin-2-yl)carbamoyl)phenyl)-9,10-dihydro-4H-benzo[d]pyrazolo[1,5-a][1,3]diazepine-3-carboxamide] are 2.22 nM and > 10000 nM.
`Cc1cc(-c2nn3c(c2C(N)=O)Nc2ccc(N4CCN(CC5CCN(c6ccc(N7CCC(=O)NC7=O)cc6)CC5)CC4)cc2CC3)cc(C)c1C(=O)Nc1cc(C(F)(F)F)ccn1` [Example B7, 2-(3,5-dimethyl-4-((4-(trifluoromethyl)pyridin-2-yl)carbamoyl)phenyl)-7-(4-((1-(4-(2,4-dioxotetrahydropyrimidin-1(2H)-yl)phenyl)piperidin-4-yl)methyl)piperazin-1-yl)-9,10-dihydro-4H-benzo[d]pyrazolo[1,5-a][1,3]diazepine-3-carboxamide] displayed a DC50 at BTK of 5.37 nM. Moreover, in the experiment on HEK-293 cells (Homo sapiens, 72 h), the IC50 was > 10000 nM.
